Reference: US20100093667A1, “SALTS OF HIV INHIBITOR COMPOUNDS” (Gilead Sciences, Inc., priority 2008, published 2010)

Tested on: HIV-1 IIIB
Assay: Anti-HIV-1 activity in MT-2 cells, virus-induced cytopathic effect (CellTiter-Glo)
Type: cell-based
Procedure: MT-2 cells were maintained in RPMI-1640 medium supplemented with antibiotics and 10% fetal bovine serum (FBS). MT-2 cells were infected with HIV-1 IIIB at a multiplicity of infection (moi) of 0.01 and added to 96-well plates with serial dilutions of tested compounds at a density of 20,000 cells/well. […] Activity against NRTI-resistant mutants was determined in parallel with wild-type control virus and fold change in EC50 was calculated.

CCOC(=O)[C@H](C)N[P@](=O)(CO[C@@H]1C=C(F)[C@H](n2cnc3c(N)ncnc32)O1)Oc1ccccc1 (single isomer, unassigned) [Prodrug]
EC50 (Human immunodeficiency virus 1, MT2, 120 h, MT-2 cells, HIV-1 IIIB, 5-day incubation, mean ± SD): 150 ± 40 nM | more potent than the parent compound (MT-2): 71 fold
